pIC50: −log10 of the molar value.
Experiments:
[1] = tested on: ear edema induced by croton oil; test: Croton oil-induced ear edema test, local anti-inflammatory effect; format: in vivo, male ICR mice; conditions: mice, topical, 5 hours
Description: A-2: As animals, male ICR mice weighing 25 g were used.
A-4: To evaluate the in vivo anti-inflammatory effect of the inventive PMS compounds as listed above, the ear edema test was used as an acute inflammatory experimental model.
After inducing edema on one ear of mice by the application of croton oil, the sample of each of the PMS compounds as described above was dissolved in 80% chloroform. […] The other ear was applied only with the solvent, i.e., 80% chloroform.
After 5 hours of the initiation of the experiment, the ear tissue at the level of edema was collected by a gimlet from the skin, and the tissue collected was compared with one collected from the control part of the ear by a gimlet, to calculate the percent inhibition.
A-5: To calculate the statistical significance, the results obtained in each of the […] and the […] were evaluated by Student's t-test.

[2] = biological target: T1, human recombinant PLA2 (group II) (Homo sapiens, UniProt P14555); test: Fluorometric anti-PLA2 assay, human recombinant PLA2 (group II); format: biochemical; conditions: measured for fluorescence with human recombinant PLA2 (group II); read-out: Anti-PLA2 activity IC50 HPLA2
T1 sequence (P14555 21-144): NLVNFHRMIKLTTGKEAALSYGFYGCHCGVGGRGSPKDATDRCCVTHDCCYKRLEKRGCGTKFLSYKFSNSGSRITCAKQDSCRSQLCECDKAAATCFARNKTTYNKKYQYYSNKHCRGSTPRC
Description: (§1) Phospholipase A2 hydrolyzes an ester linkage at the sn-2 position of glycerophospholipid and liberates fatty acids and lysophospholipids. The in vitro action of particular compounds was evaluated by the analysis of fatty acids according to the fluorometric method described in Radvanyi et al., Anal. Biochem. 1989, 177. 103-109, and by the analysis of lysophospholipids according to the UV spectrophotometric method described in Reynolds et al., Anal. Biochem. 1992, 204, 190-197.
(§2) Enzymes used were two secretory enzymes of group II (human recombinant PLA2, and PLA2 basic subunit isolated from Crotalus durissus terrificus), and a secretory enzyme of porcine pancreatic (group I) PLA2.
(§3) Regarding substrates, palmitoyl-2-(10-pyrenyl decanoyl)-sn-glycero-3-phosphatidylglycerolic acid as a fluorescent substrate was used in the fluorometric method, and the lithium salt of 1,2-bis-(dihexanylthio)-dideoxy-rac-glycero-3-phosphorylglycerol was used in the UV spectrophotometric method.
(§4) The fluorometric analysis was performed using a Perkin Elmer LS50 luminescence spectrometer in a unit dosage polystyrene cell having a size of 1 cm. The exact concentration of the fluorescent substrate was determined by UV Unicam spectrometry in a quartz cell.
(§5) PLA2 is an enzyme that hydrolyzes an ester linkage at the sn-2 position of phospholipid. […] After hydrolysis with the enzyme, fluorescence emitted by the liberated fatty acid (pyrenyl decanoic acid) complex with bovine serum albumin (BSA) is increased, and strong fluorescence emission is observed at 378 and 398 nm. The principle of the analysis is to measure a difference in fluorescence at 398 nm in order to examine the production of fatty acids liberated for a given period of time, thus determining the PLA2 activity.
(§6) Measurement of the enzymatic activity was performed in a cell containing: 960 μl of Tris buffer; 50 mM HCl (pH 7.5); 0.5 M NaCl, 1 mM EGTA; and 1 μl substrate. This mixture was stirred under reflux for one minute to permit the formation of vesicles of substrate, and then, 10 μl of 10% SAB, 10 μl of solvent (ethanol or DMSO) or inhibitor solution, 10 μl of PLA2 to a given concentration and finally 10 μl of 1 M calcium chloride (CaCl2) for initiating the activity were successively added to the mixture under stirring.
(§7) Good conditions of measurement of the enzymatic activity include saturation of the enzyme, and thus, initial concentrations used are as follows: (i) human recombinant PLA2: 0.1 μl/ml; (ii) porcine pancreatic PLA2: 0.6 μl/ml; and (iii) Crotalus durissus terrificus (CB) PLA2: 0.05 μl/ml. Mother solution containing the inhibitor was prepared at an initial concentration of 10^−2 M.
(§8) The enzymatic activity is shown by a curve of which the original slope permits to calculate the initial velocity of the reaction. The following equation permits to calculate the enzymatic activity (A; μmol) of fatty acids liberated per minute. In the equation, S0 represents the slope of a curve in the absence of calcium (control), S the slope in the presence of calcium, V the volume (μl) of the substrate solution, and Fmax the signal of maximum fluorescence obtained at the end of the enzymatic reaction: [formula]
(§9) The residual activity in the presence of an inhibitor was evaluated by slopes obtained in the absence and presence of an inhibitor, according to the following equation: Residual activity (%)=(S−S0) in the presence of inhibitor/(S−S0) in the absence of inhibitor
(§10) Values obtained as a logarithmic function of the inhibitor concentrations used permit to determine the IC50 value, i.e., the inhibitor concentration required to cause 50% reduction of the enzymatic activity. The lower the IC50 value, the higher the inhibitory activity of a compound tested.

[3] = tested on: PLA2 of Crotalus durissus terrificus (group II); test: UV spectrophotometric anti-PLA2 assay, Crotalus durissus terrificus PLA2 (CB); format: biochemical; conditions: UV spectrophotometric method, read-out: Anti-PLA2 activity IC50 CB Spectro
Description: as §1, §2, §3
The UV spectrophotometric analysis was performed on an ELx 808 Ultra Micro Plate Reader apparatus (96-well plate).
Lysothiophospholipid (LTPL) liberated by the lypolytic action of PLA2 in the presence of calcium reacts with dithionitrobenzoic acid (DTNB) present in medium to form an LTPL-TNB complex and an TNB-anion which induces the yellowing of reaction medium.
The measurement of enzymatic activity is performed in a multiple well plate of which each well contains 190 μl of 1× buffer, 2 μl of 10 mM DTNB, […] of 20 mM substrate, 2 μl of solvent or inhibitor solution, and 2 μl of PLA2 at a given concentration. The plate was stirred and 2 μl of 1 M calcium chloride was added to initiate the enzymatic reaction. Substrate was used at a lower concentration than micellar critical concentration (about 1 mM) in a monomeric form, and the ratio of substrate to enzyme was respected. […]
(§11) Good conditions of measurement include saturation of enzyme. […] It calculated directly the initial velocity of the reaction. […]
(§12) 15 readings for each well (3 wells per concentration) were performed at intervals of 3 seconds.

[4] = tested on: PLA2 of Crotalus durissus terrificus (group II); test: Fluorometric anti-PLA2 assay, Crotalus durissus terrificus PLA2 (CB); format: biochemical; conditions: fluorometric method, read-out: Anti-PLA2 activity IC50 CB Fluo
Description: as §1, §2, §3, §4
as §5, with “activity. […]” for “activity.”
The residual activity in the presence of an inhibitor was evaluated by slopes obtained in the absence and presence of an inhibitor, according to the following equation: Residual activity (%)=(S−S0) in the presence of inhibitor/(S−S0) in the absence of inhibitor […]

[5] = biological target: T2, porcine pancreatic PLA2 (group I) (Sus scrofa, UniProt P00592); test: Fluorometric anti-PLA2 assay, porcine pancreatic PLA2 (group I); format: biochemical; conditions: measured for fluorescence with porcine pancreatic PLA2 (group I); read-out: Anti-PLA2 activity IC50 PPLA2
T2 sequence (P00592 23-146): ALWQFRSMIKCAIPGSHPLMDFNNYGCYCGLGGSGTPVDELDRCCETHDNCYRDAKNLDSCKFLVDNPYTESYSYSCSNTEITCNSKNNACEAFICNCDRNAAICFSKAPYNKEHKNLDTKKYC
Description: as §1, §2, §3, §4, §5, §6, §7, §8, §9, §10

[6] = biological target: T2, porcine pancreatic PLA2 (group I); test: UV spectrophotometric anti-PLA2 assay, porcine pancreatic PLA2 (group I); format: biochemical; conditions: UV spectrophotometric method, read-out: Anti-PLA2 activity IC50 PPLA2 spectro
Description: as §1, §2, §3
The UV spectrophotometric analysis was performed on an ELx 808 Ultra Micro Plate Reader apparatus (96-well plate). […]
as §11, §12

[7] = tested on: carrageenan-induced edema; test: Carrageenan-induced edema test in rats; format: in vivo; conditions: dose of 10 mg/kg
Description: An in vivo activity assay was performed by a carrageenan-induced edema test in rats.
In the experimental protocol conducted, indomethacin as the reference product, or the compound No. 5, was administered intraperitoneally or orally at one hour before the injection of carrageenan into the hind leg of the rats. The volume of edema was measured at 0, 3 and 5 hours after the injection of carrageenan. The doses used were 5, 10 and 20 mg/kg for the two products tested.

Molecule | pIC50 [2] | pIC50 [5] | further results
1-[4′-(4,5-dihydro-1,2,4(4H)-5-oxo-oxadiazol-3-ylmethyl)benzoyl]-4-dodecylpiperazine [PMS 1314] | – | – | Edema inhibition (%) ([1]; 1 mg/ear): 28.5 ± 6.85%
1-[4′-(4,5-dihydro-1,2,4(4H)-5-oxo-oxadiazol-3-ylmethyl)benzyl]-4-tetradecylpiperazine [Compound 2] | < 5.00 | – | Edema inhibition (%) ([1]; 1 mg/ear, listed as PMS 1227): 51.45 ± 11.67%
1-[4′-(4,5-dihydro-1,2,4(4H)-5-oxo-oxadiazol-3-ylmethyl)benzyl]-4-tetradecylpiperazine [PMS 1281] | – | – | Edema inhibition (%) ([1]; 1 mg/ear): 47.83 ± 12.34%
CCCCCCCCCCCCCCCCCCN1CCN(C(=O)c2ccc(Cc3noc(=O)[nH]3)cc2)CC1 [Compound 6, 1-[4′-(4,5-dihydro-1,2,4(4H)-5-oxo-oxadiazol-3-ylmethyl)benzoyl]-4-octadecylpiperazine] | 6.10 | – | pIC50 [3]: 5.70; pIC50 [4]: 5.82
CCCCCCCCCCCCCCCCCCN1CCN(c2ccc(Cc3noc(=O)[nH]3)cc2)CC1 [Compound 10, 1-[4′-(4,5-dihydro-1,2,4(4H)-5-oxo-oxadiazol-3-ylmethyl)phenyl]-4-octadecylpiperazine] | 5.57 | < 4.00 | –
CCCCCCCCCCCCN1CC(C)N(C(=O)c2ccc(Cc3noc(=O)[nH]3)cc2)CC1C (centres unmarked) [Compound 13, 1-[4′-(4,5-dihydro-1,2,4(4H)-5-oxo-oxadiazol-3-ylmethyl)benzoyl]-2,5-dimethyl-4-dodecylpiperazine] | – | < 4.00 | Edema inhibition (%) ([1]; 1 mg/ear): 62.79 ± 3.23%
CCCCCCCCCCCCCCCCCCN1CCN(C(=O)c2ccc(C=C3SC(=O)NC3=O)cc2)CC1 [Compound 14, [4-(4′-octadecylpiperazine-1′-ylcarbonyl)benzylidene]-1,3-thiazolidine-2,4-dione] | 6.55 | 5.00 | pIC50 [6]: < 4.00; pIC50 [3]: 6.40; pIC50 [4]: 6.40
CCCCCCCCCCCCCCCCCCN1CCN(C(=O)c2ccc(CC3SC(=O)NC3=O)cc2)CC1 (centres unmarked) [Compound 15, 1-[4′-(2,4-dioxo-1,3-thiazolidin-5-ylmethyl)benzoyl]-4-octadecylpiperazine] | 6.00 | < 4.00 | pIC50 [3]: 5.70; pIC50 [4]: 5.85
CCCCCCCCCCCCCCN1CCN(Cc2ccc(Cc3noc(=O)[nH]3)cc2)C(=O)C1 [Example 7, 1-[4′-(4,5-dihydro-1,2,4(4H)-5-oxo-oxadiazol-3-ylmethyl)benzyl]-4-tetradecylpiperazin-2-one] | 4.52 | < 4.00 | –
CCCCCCCCCCCCCCN1CCN(C(=O)c2ccc(Cc3noc(=O)[nH]3)cc2)CC1 [Example 8, 1-[4′-(4,5-dihydro-1,2,4(4H)-5-oxo-oxadiazol-3-ylmethyl)benzoyl]-4-tetradecylpiperazine] | 4.73 | < 4.00 | –
CCCCCCCCCCCCCCN1CCN(C(=O)c2ccc(CCCc3noc(=O)[nH]3)cc2)CC1 [Example 9, 1-[4′-(4,5-dihydro-1,2,4(4H)-5-oxo-oxadiazol-3-ylpropyl)benzoyl]-4-tetradecylpiperazine] | 5.28 | < 4.00 | –
COc1ccc2c(c1)c(CC(=O)O)c(C)n2C(=O)c1ccc(Cl)cc1 [Indomethacin, indomethacin] | – | – | Edema inhibition (%) ([1]; 0.5 mg/ear): 43.11 ± 8.79%; inhibition of edema ([7]; intraperitoneal route, given one hour before carrageenan): 79%; inhibition of edema ([7]; oral route, at 5 hours after the injection of carrageenan): 16%

— US20050075345A1, “Novel inhibitor compounds specific of secreted non-pancreatic human a2phospholipase of group II” (Yang Ji Chemical Company Ltd., priority 2001, published 2005)
